Measured values published in PMC8584424, “Synthesis of Novel 2-Thiouracil-5-Sulfonamide Derivatives as Potent Inducers of Cell Cycle Arrest and CDK2A Inhibition Supported by Molecular Docking” (International Journal of Molecular Sciences, 2021).

What was measured:
[1] = system: HepG2 (liver) cancer cells; test: In vitro cytotoxicity assessment (MTT), HepG2; assay type: cell-based, human; conditions: for IC50: Homo sapiens, HepG2, 48 h, MTT, mean of three experiments ± SD, NA: not active; for SI (selectivity index) HepG2: IC50 in WI38 normal cells / IC50 in HepG2
Description: (§1) Four cancer cell lines were used in this study viz ovarian (A-2780), colon (HT-29), breast (MCF-7), and liver (HepG2) cancer cells. They were provided by the National Institute of Cancer, Cairo University (Cairo, Egypt). The selection of those cancer cells was encouraged by the stated anticancer activity of a number 5-Fluorouracil hybrids against the mentioned cancer cells and based on the reported cytotoxic activity of a large range of bioactive cores containing sulfonamide moiety.
(§2) Cells were seeded in 96 well plates at a density of 2 × 10^4 and incubated to allow the attachment for 24 h. Then the cells were treated at different concentrations (2.5–10 μM) with 5-FU as a positive control or the synthesized compounds for 48h. 0.1% DMSO was used as a negative control. Afterward, cells were washed using PBS and the viability of cells was evaluated utilizing in vitro toxicology assay kit, MTT Based (Stock No. TOX-1, Sigma-Aldrich, Saint Louis, Missouri, USA), per the manufacturer’s instructions. The plates were read at 570 nm. IC50 was calculated using a sigmoidal dose-response curve (GraphPad Prism version 5 for Windows (GraphPad Inc., USA)). Data are presented as the mean of the three individual experiments. The degree of selectivity of the active target compounds relative to WI38 normal cell lines is expressed as previously described. Selectivity index (SI) = IC50 of a pure compound in a normal cell line/IC50 of the same pure compound in a cancerous cell line.

[2] = system: MCF-7 (breast) cancer cells; test: In vitro cytotoxicity assessment (MTT), MCF-7; assay type: cell-based, human; conditions: for IC50: Homo sapiens, MCF7, 48 h, MTT, mean of three experiments ± SD, NA: not active; for SI (selectivity index) MCF-7: IC50 in WI38 normal cells / IC50 in MCF-7
Description: as §1, §2

[3] = system: HT-29 (colon) cancer cells; test: In vitro cytotoxicity assessment (MTT), HT-29; assay type: cell-based, human; conditions: for IC50: Homo sapiens, HT-29, 48 h, MTT, mean of three experiments ± SD, NA: not active; for SI (selectivity index) HT-29: IC50 in WI38 normal cells / IC50 in HT-29
Description: as §1, §2

[4] = system: A-2780 (ovarian) cancer cells; test: In vitro cytotoxicity assessment (MTT), A-2780; assay type: cell-based, human; conditions: for IC50: Homo sapiens, A2780, 48 h, MTT, mean of three experiments ± SD, NA: not active; for SI (selectivity index) A-2780: IC50 in WI38 normal cells / IC50 in A-2780
Description: as §1, §2

WI38 normal cells = test: In vitro cytotoxicity assessment (MTT), normal cells; assay type: cell-based; conditions: WI-38; normal human cell line WI38, MTT
Description: as §2, with “Then the cells were treated at different concentrations (2.5–10 μM) with 5-FU as a positive control or the synthesized compounds for 48h.” left out

CDK2/CyclinA2 = target: T1, CDK2/CyclinA2 (Homo sapiens, UniProt P24941); test: In vitro inhibitory screening of CDK2 (CDK2 Assay kit, Kinase-Glo MAX); assay type: biochemical; conditions: CDK2/CyclinA2, 30 °C 45 min; mean of three experiments ± SD; read-out: CDK2 Protein Kinase (IC50 in µM)
T1 construct: purchased #79599
Description: To measure CDK2/CyclinA2 activity, the CDK2 Assay kit #79599 was used for screening and profiling applications, together with Kinase-Glo® MAX (Promega#V6071) as a detection reagent. […] Briefly, 25 μL of the master mixture containing 6 μL Kinase assay buffer + 1 μL ATP + 5 μL CDK substrate peptide + 13 μL distilled water were added to each well. Later, 5 µL of inhibitor buffer only or diluted compound were added to the blank or test inhibitor wells, respectively. Then, 20μL of Kinase assay buffer was added to blank wells. The reaction was started by the addition of 20 μL of CDK2/CyclinA2 enzyme to the wells of the test inhibitor. The final volume was 50 µL in all of the reactions. Incubation was at 30 °C for 45 min for all the enzymatic reactions. Finally, to each well, 50 μL of Kinase-Glo MAX reagent was added. The plate was incubated for 15 min at room temperature then, the luminescence signal was measured using a Bio Tek Synergy 2 microplate reader. Experiments were performed in triplicates.

Structure (SMILES)	melting point [°C]	IC50 (CDK2/CyclinA2) [µM]	IC50 [1] [µM]	IC50 [2] [µM]	IC50 [3] [µM]	IC50 [4] [µM]	IC50 (WI38 normal cells) [µM]	SI (selectivity index) HepG2 [1]	SI (selectivity index) MCF-7 [2]	SI (selectivity index) HT-29 [3]	SI (selectivity index) A-2780 [4]
O=c1[nH]cc(F)c(=O)[nH]1 [Compound 5-FU, 5-fluorouracil, reference compound]			38.4 ± 2.4	5.15 ± 1.14	4.69 ± 1.13	3.92 ± 1					
Cc1[nH]c(=S)[nH]c(=O)c1S(=O)(=O)Nc1ccccc1 [Compound 6a, 6-Methyl-4-Oxo-N-Phenyl-2-Thioxo-1,2,3,4-Tetrahydropyrimidine-5-Sulfonamide]	316 to 318		15.6 ± 1.52	16.8 ± 2.11	11.3 ± 2.08	17.7 ± 2.18					
COc1ccc(NS(=O)(=O)c2c(C)[nH]c(=S)[nH]c2=O)cc1 [Compound 6b, N-(4-Methoxyphenyl)-6-Methyl-4-Oxo-2-Thioxo-1,2,3,4-Tetrahydropyrimidine-5-Sulfon-Amide]	320 to 322	0.447 ± 0.031	2.23 ± 0.55	2.29 ± 0.63	5.1 ± 1.32	2.56 ± 0.45	71.7 ± 2	32.13	31.29	14.05	28.00
Cc1ccc(NS(=O)(=O)c2c(C)[nH]c(=S)[nH]c2=O)cc1 [Compound 6c, 6-Methyl-4-Oxo-2-Thioxo-N-(P-Tolyl)-1,2,3,4-Tetrahydropyrimidine-5-Sulfonamide]	313 to 315		6.71 ± 0.99	6.36 ± 1.2	5.46 ± 1.66	14 ± 1.05	84.4 ± 1.7	12.58	13.27	15.46	6.02
CC(=O)c1cccc(NS(=O)(=O)c2c(C)[nH]c(=S)[nH]c2=O)c1 [Compound 6d, N-(3-Acetylphenyl)-6-Methyl-4-Oxo-2-Thioxo-1,2,3,4-Tetrahydropyrimidine-5-Sulfonamide]	318 to 320	0.567 ± 0.021	5.24 ± 1.05	2.3 ± 0.62	6.13 ± 0.53	11.7 ± 1.99	74.4 ± 4.74		32.33	12.13	6.37
Cc1[nH]c(=S)[nH]c(=O)c1S(=O)(=O)Nc1ccc([N+](=O)[O-])cc1 [Compound 6f, 6-Methyl-N-(4-Nitrophenyl)-4-Oxo-2-Thioxo-1,2,3,4-Tetrahydropyrimidine-5-Sulfonamide]		0.605 ± 0.023	6.1 ± 0.48	2.34 ± 0.61	6.4 ± 1.24	10.2 ± 0.97	65.7 ± 2.28				
Cc1[nH]c(=S)[nH]c(=O)c1S(=O)(=O)Nc1ccc(Br)cc1 [Compound 6g, N-(4-Bromophenyl)-6-Methyl-4-Oxo-2-Thioxo-1,2,3,4-Tetrahydropyrimidine-5-Sulfonamide]	333 to 335	0.485 ± 0.033	2.47 ± 0.51	7.31 ± 1.21	5.05 ± 0.83	1.62 ± 0.35	70.6 ± 2.14		9.65	13.98	43.58
Cc1[nH]c(=S)[nH]c(=O)c1S(=O)(=O)Nc1cccc(C(=O)C=Cc2ccc(Cl)cc2)c1 [Compound 7a, N-(3-(3-(4-Chlorophenyl)acryloyl)phenyl)-6-Methyl-4-Oxo-2-Thioxo-1,2,3,4-Tetrahydro Pyrimidine-5-Sulfonamide]	315 to 317	6.41 ± 0.377	10.9 ± 1.72	6.9 ± 1.33	4.2 ± 0.88	12.5 ± 2.1	83.1 ± 2	7.61	12.04	19.78	6.66
Cc1[nH]c(=S)[nH]c(=O)c1S(=O)(=O)Nc1cccc(C(=O)C=Cc2ccc([N+](=O)[O-])cc2)c1 [Compound 7b, 6-Methyl-N-(3-(3-(4-Nitrophenyl)acryloyl)phenyl)-4-Oxo-2-Thioxo-1,2,3,4-Tetrahydropyrimidine-5-Sulfonamide]	318 to 320	0.81 ± 0.026	12.4 ± 1.82	6.11 ± 0.5	2.84 ± 0.78	11.1 ± 1.41	79.9 ± 2.56	6.43	13.08	28.14	7.22
Cc1[nH]c(=S)[nH]c(=O)c1S(=O)(=O)Nc1cccc(C(=O)C=Cc2ccc(Br)cc2)c1 [Compound 7c, N-(3-(3-(4-Bromophenyl)acryloyl)phenyl)-6-Methyl-4-Oxo-2-Thioxo-1,2,3,4-Tetrahydro Pyrimidine-5-Sulfonamide]	335 to 337	8.2 ± 0.486	8.25 ± 0.68	11.7 ± 2.07	8.14 ± 1.95	6.1 ± 0.54	62.7 ± 1.93	7.60	5.38	7.71	10.28
Cc1[nH]c(=S)[nH]c(=O)c1S(=O)(=O)NNc1ccccc1 [Compound 8b, 6-Methyl-4-Oxo-N′-Phenyl-2-Thioxo-1,2,3,4-Tetrahydropyrimidine-5-Sulfonohydrazide]			13.1 ± 2.04	9.89 ± 1.8	8.16 ± 2.07	16.4 ± 1.55					
Cc1[nH]c(=S)[nH]c(=O)c1S(=O)(=O)NNc1ccc([N+](=O)[O-])cc1[N+](=O)[O-] [Compound 8c, N′-(2,4-Dinitrophenyl)-6-Methyl-4-Oxo-2-Thioxo-1,2,3,4-Tetrahydropyrimidine-5-Sulfono Hydrazide]	321 to 323		14.8 ± 1.45	5.54 ± 1.58	10.1 ± 1.54	8.57 ± 1.79					

Second part, led by results:

melting point [°C]	IC50 (CDK2/CyclinA2) [µM]	Structure (SMILES)	IC50 [1] [µM]	IC50 [2] [µM]	IC50 [3] [µM]	IC50 [4] [µM]	IC50 (WI38 normal cells) [µM]	SI (selectivity index) HepG2 [1]	SI (selectivity index) MCF-7 [2]	SI (selectivity index) HT-29 [3]	SI (selectivity index) A-2780 [4]
343 to 345		Cc1[nH]c(=S)[nH]c(=O)c1S(=O)(=O)NNC(N)=S [Compound 8a, [(6-Methyl-4-Oxo-2-Thioxo-1,2,3,4-Tetrahydropyrimidin-5-Yl) Sulfonylamino] Thiourea]	18 ± 1.95	13.3 ± 3	8.02 ± 1.99	16.8 ± 1.82					
327 to 329		Cc1[nH]c(=S)[nH]c(=O)c1S(=O)(=O)NNC(=O)c1ccc(Cl)cc1 [Compound 9a, N′-(4-Chlorobenzoyl)-6-Methyl-4-Oxo-2-Thioxo-1,2,3,4-Tetrahydropyrimidine-5-Sulfono-Hydrazide]	11 ± 1.23	10.8 ± 1.53	6.64 ± 1.19	11.9 ± 3.47					
334 to 336		Cc1[nH]c(=S)[nH]c(=O)c1S(=O)(=O)NNC(=O)c1ccccc1Cl [Compound 9b, N′-(2-Chlorobenzoyl)-6-Methyl-4-Oxo-2-Thioxo-1,2,3,4-Tetrahydropyrimidine-5-Sulfono-Hydrazide]	13.3 ± 1.5	13.6 ± 2.65	10.6 ± 1.25	7.95 ± 1.75					
339 to 341		Cc1[nH]c(=S)[nH]c(=O)c1S(=O)(=O)NNC(=O)c1ccc(Br)cc1 [Compound 9c, N′-(4-Bromobenzoyl)-6-Methyl-4-Oxo-2-Thioxo-1,2,3,4-Tetrahydropyrimidine-5-Sulfono-Hydrazide]	9.44 ± 1.03	11.9 ± 2	6.99 ± 1.35	8.16 ± 2.07					
